Here are results for seven compounds from US10590115B2, “Tetrahydroquinazoline derivatives useful as anticancer agents” (PFIZER INC., priority 2018, dated 2020).

A word on the IC50: it is the concentration that inhibits the measured activity by half. A lower IC50 goes with inhibition by little substance.

Assay [1] addresses T1, KRAS G12C in MiaPaCa2 cells (Homo sapiens, UniProt P01116, G12C).
T1 construct: endogenous in cells; host or cells: MiaPaCa2
Put plainly: MiaPaCa2 Cell Activity Assay (Raf-1 RBD capture of active Ras, MSD). The settings on record: MIAPaCa-2 cells, 6 hours treatment; assay limit is 30.0 μM. Type of assay: cell-based. Here is the method: MiaPaCa2 Cell Activity Assay
(§1) Compounds presented in the present invention lead to the accumulation of the GDP bound Ras upon treatment of human cancer cell line.
(§2) The accumulation of the GDP-bound KRAS G12C in cellular environment was measured based on the principle that KRAS G12C only binds to its downstream kinase; Raf-1 (MAP Kinase Kinase Kinase), when in its active-GTP bound state. In this state, Ras binded to a domain of Raf-1 kinase referred to as the Ras Binding Domain (RBD).
(§3) MiaPaCa2 cells were grown in DMEM medium (Gibco 11995) supplemented with 10% fetal bovine serum and 1% penicillin/streptomycin. Cells were seeded in 96-well tissue culture plates at a density of 40,000 cells/well and allowed to attach for 16-24 hours. Test compounds were prepared as a 10 mM stock in DMSO and serially diluted in 100% DMSO using a 3-fold dilution scheme. An intermediate 5× concentrated plate in complete growth medium was made and 25 μl/well was added to the 100 μl of cells for a final concentration of 0.1% DMSO. Each concentration of exemplary compound was tested in duplicate. The negative control wells were cells with control inhibitor at 10 μM, and the positive control wells were cells without drugs, DMSO only. Plates were incubated for 6 hours at 37° C., 5% CO2. Following treatment, cells were washed 3× with ice-cold PBS and 100 μl/well ice-cold 1× Assay/Lysis. Buffer with protease inhibitors was added (25 mM HEPES, pH 7.5, 150 mM NaCl, 1% NP-40, 10 mM MgCl2, 1 mM EDTA, 2% Glycerol). Following lysis samples were frozen at −80° C.
(§4) Raf-1 RBD (LJIC-1988A1) was diluted to 100 ng/well in PBS and 5 μl/well was spot coated onto MSD high bind SECTOR plates (L15XB). Plates were incubated at room temperature for 1 hour on an orbital shaker. Plates were washed with PBS/0.05% Tween-20 and 50 μl/well of thawed lysate samples were added, followed by 50 μl of 1% MSD Blocker A in PBS/0.05% Tween-20 (R93BA). Plates were incubated for 1 hour on an orbital shaker and washed with PBS/0.05% Tween-20. 25 μl/well of Anti-pan-Ras Antibody (Cell Biolabs 244003) diluted 1:3000 was added in 1% MSD Blocker A solution and plates were incubated for 1 hour on an orbital shaker and washed with PBS/0.05% Tween-20. SULFO-TAG goat anti-mouse secondary antibody (MSD R32AC) was diluted 1:500 in MSD Blocker A solution and added at 25 μL/well. Plates were incubated for 1 hour on an orbital shaker and washed with PBS/0.05% Tween-20. 150 μl/well of Read Buffer T (MSD R92TC) diluted 1:3 in H2O was added and plates were read on a Meso Scale Discovery Sector Imager S600.
(§5) KRAS signal was normalized to maximum inhibition and DMSO control values, and IC50 values were generated using a 4 parameter fit of the dose response curve. The decrease in IC50 reflects that the exemplary compound lead to a higher level of accumulation of GDP-bound KRAS G12C than another exemplary compounds at specific timepoint of treatment of cancer cell line.

A further assay deals with T2, KRAS G12C in H358 cells (Homo sapiens, UniProt P01116, G12C).
T2 construct: endogenous in cells; host or cells: H358
In words: H358 Cell Activity Assay (Raf-1 RBD capture of active Ras, MSD). Type of assay: cell-based. The settings on record: 6 hours treatment. As to the method: as §1, §2
as §3, with “H358” for “MiaPaCa2”, “RPMI 1640” for “DMEM”, “11875)” for “11995)”
as §4, §5

The target of assay [2] is T3, GDP-loaded kRas (1-169) G12C, C51S, C80L, C118S (Homo sapiens, UniProt P01116, C118S/C51S/C80L/G12C).
T3 construct: GDP-loaded kRas (1-169) G12C, C51S, C80L, C118S
In words: Mass Spectrometry Reactivity Assay (MSRA), covalent adduct with kRas G12C. Type of assay: binding. The settings on record: 0.5 h at room temperature; 5 μM KRas protein; typical final concentration of the compounds 10 μM.

Turning to `C=CC(=O)N1CCN(c2nc(OCCCN(C)C)nc3c2C[C@@H](C)[C@H](c2c(Cl)c(C)cc4[nH]ncc24)C3)CC1` (relative stereo) [Example C7, 1-(4-{(6R,7R)-rel-7-(5-chloro-6-methyl-1H-indazol-4-yl)-2-[3-(dimethylamino)propoxy]-6-methyl-5,6,7,8-tetrahydroquinazolin-4-yl}piperazin-1-yl)prop-2-en-1-one], the half-inhibitory concentration (IC50) in assay [1] was determined as 0.088 µM; against KRAS G12C in H358 cells it was 0.106 µM. The “% Modification (0.5 h)” value in assay [2] came to 73%.
As to `C=CC(=O)N1CCN(c2ncnc3c2C[C@@H](C)[C@H](c2c(C)ccc4[nH]ncc24)C3)CC1` [Example A5, 1-{4-[(6R,7R)-6-methyl-7-(5-methyl-1H-indazol-4-yl)-5,6,7,8-tetrahydroquinazolin-4-yl]piperazin-1-yl}prop-2-en-1-one], the IC50 was 0.64 µM in assay [1] and 0.78 µM against KRAS G12C in H358 cells. In assay [2], the “% Modification (0.5 h)” value worked out at 77%.
Take `C=CC(=O)N1CCN(c2nc(N3CC(N(C)C)C3)nc3c2C[C@@H](C)[C@H](c2c(Cl)c(C)cc4[nH]ncc24)C3)CC1` (relative stereo) [Example F6, 1-(4-{(6R,7R)-rel-7-(5-chloro-6-methyl-1H-indazol-4-yl)-2-[3-(dimethylamino)azetidin-1-yl]-6-methyl-5,6,7,8-tetrahydroquinazolin-4-yl}piperazin-1-yl)prop-2-en-1-one]: the 50% inhibitory concentration (IC50) came to 0.126 µM in assay [1] and 0.116 µM on KRAS G12C in H358 cells. Moreover, the “% Modification (0.5 h)” value in assay [2] is given as 83%.
For `C=CC(=O)N1CCN(c2nc(N3CC(N(C)C)C3)nc3c2C[C@@H](C)[C@H](c2c(C)ccc4[nH]ncc24)C3)CC1` (single isomer, unassigned) [Example F2], the IC50 in assay [1] is 0.285 µM; at KRAS G12C in H358 cells it was 0.277 µM. In assay [2], the “% Modification (0.5 h)” value stood at 79%.
As to `C=CC(=O)N1CCN(c2nc(N3CC(N(C)C)C3)nc3c2C[C@@H](C)[C@H](c2c(Cl)c(C)cc4[nH]ncc24)C3)CC1` [Example F7, 1-(4-{(6R,7R)-7-(5-chloro-6-methyl-1H-indazol-4-yl)-2-[3-(dimethylamino)azetidin-1-yl]-6-methyl-5,6,7,8-tetrahydroquinazolin-4-yl}piperazin-1-yl)prop-2-en-1-one], the values for the concentration for half-maximal inhibition (IC50) (in assay [1]; against KRAS G12C in H358 cells) were 0.108 µM and 0.062 µM, respectively. The “% Modification (0.5 h)” value in assay [2] is recorded as 82%.
In the case of `C=CC(=O)N1CCN(c2nc(N3CC(N(C)C)C3)nc3c2C[C@@H](C)[C@H](c2c(Cl)ccc4[nH]ncc24)C3)CC1` (relative stereo) [Example F5, 1-(4-{(6R,7R)-rel-7-(5-chloro-1H-indazol-4-yl)-2-[3-(dimethylamino)azetidin-1-yl]-6-methyl-5,6,7,8-tetrahydroquinazolin-4-yl}piperazin-1-yl)prop-2-en-1-one], the IC50 in assay [1] turned out to be 0.154 µM; on KRAS G12C in H358 cells, 0.145 µM. Besides, the “% Modification (0.5 h)” value in assay [2] was found to be 72%.
Consider `C=CC(=O)N1CCN(c2nc(OC[C@H]3CCCN3C)nc3c2C[C@@H](C)[C@H](c2c(C)ccc4[nH]ncc24)C3)CC1` (relative stereo) [Example C10, 1-{4-[(6R,7R)-rel-6-methyl-7-(5-methyl-1H-indazol-4-yl)-2-{[(2R)-1-methylpyrrolidin-2-yl]methoxy}-5,6,7,8-tetrahydroquinazolin-4-yl]piperazin-1-yl}prop-2-en-1-one], for which the values for the concentration for half-maximal inhibition (IC50) (in assay [1]; at KRAS G12C in H358 cells) were 0.236 µM and 0.129 µM, respectively. Further, the “% Modification (0.5 h)” value in assay [2] was determined as 80%.
